Test: particle size distribution measured under wet conditions (Malvern Mastersizer 2000 SM)
Format: physicochemical
Conditions: stiripentol particles of Example 1 after double recrystallization from toluene
Method: This particle size distribution is measured under wet conditions.

CC(C)(C)C(O)/C=C/c1ccc2c(c1)OCO2 (stereo not shown) [stiripentol, 4-dimethyl-1-[(3,4-methylenedioxy)-phenyl]-1-penten-3-ol]
Diameter of 90% of the particles (d90): ≤ 250 μm
